From patent US12544463B2, “Deuterium substituted positron emission tomography (PET) imaging agents and their pharmacological application” (Five Eleven Pharma Inc., priority 2017, dated 2026)

Assays:
[1] = biological target: T1, serotonin transporters (SERT) (Rattus norvegicus, UniProt P31652); test: In vitro binding assay, LLC-SERT membrane homogenates, [^125I]IDAM; settings: for Ki: 0.2 nM [^125I]IDAM, LLC-SERT membranes, read-out: Ki (SERT binding affinity) (converted)
T1 construct: expressed in transfected cells; host or cells: LLC-PK1 (LLC-SERT)
Experimental: The membrane homogenates of serotonin transporters (LLC-SERT, which were expressed in a common parental cell line LLC-PK1) were prepared and used for the binding assays. Competitive binding assays were performed in a final volume of 0.25 mL. […] Nonspecific binding was defined with 10 μM citalopram. Incubation was carried out for 60 min at room temperature and the bound ligand was collected on glass fiber filters presoaked with 1% polyethylenimine (SIGMA, St. Louis, MO) and counted in a gamma counter (Wizard^2, Perkin Elmer).

[2] = Biodistribution study in mice; assay type: in vivo; settings: for Biodistribution Blood / Biodistribution Bone / Biodistribution Brain / Biodistribution Heart / Biodistribution Kidney / Biodistribution Liver / Biodistribution Lung / Biodistribution Muscle / Biodistribution Pancreas / Biodistribution Skin / Biodistribution Spleen: normal male mice
Experimental: Three mice per group were used for biodistribution study. While under isoflurane anesthesia, 0.1 mL of a saline solution containing radioactive tracer was injected into tail vein. The mice were sacrificed at the time indicated by cardiac excision while under isoflurane anesthesia. Organs of interest were removed and weighed, and the radioactivity was counted. The percent dose per organ was calculated by comparing the tissue counts to counts of 1% of the initial dose (100 times diluted aliquots of the injected material) measured at the same time.

[3] = Biodistribution in rats of ^18F-III-3 (^18F-FPBM-D12); assay type: in vivo, rat; settings: for Biodistribution Blood / Biodistribution Bone / Biodistribution Brain / Biodistribution Heart / Biodistribution Kidney / Biodistribution Liver / Biodistribution Lung / Biodistribution Muscle / Biodistribution Pancreas / Biodistribution Skin / Biodistribution Spleen: normal rats, i.v.
Experimental: (§1) Three rats per group were used for each biodistribution study. While under isoflurane anesthesia, 0.2 mL of a saline solution containing 20 μCi of radioactive tracer was injected into the femoral vein. The rats were sacrificed at the time indicated by cardiac excision while under isoflurane anesthesia. Organs of interest were removed and weighed, and the radioactivity was counted. The percent dose per organ was calculated by comparing the tissue counts to counts of 1% of the initial dose (100 times diluted aliquots of the injected material) measured at the same time. Regional brain distribution in rats was measured after an iv injection of the radioactive tracer. Samples from different brain regions [cortex, striatum, hippocampus, cerebellum and hypothalamus] were dissected, weighed and counted. The percentage dose/g of each sample was calculated by comparing sample counts with the counts of the diluted initial dose described above. The ratio was calculated by dividing the percentage dose/g of each region by that of the cerebellum. The cerebellum was used as the reference region for calculating the ratio of target to non-target binding, because only a trace amount of SERT is present in the cerebellum.

[4] = biological target: T2, SERT (Rattus norvegicus, UniProt P31652); test: Region to cerebellum ratio in rats, ^18F-III-3; assay type: in vivo; settings: normal rats, i.v.
T2 construct: host or cells: live rats, dissected brain regions
Experimental: as §1

T1 sequence (P31652 whole entry): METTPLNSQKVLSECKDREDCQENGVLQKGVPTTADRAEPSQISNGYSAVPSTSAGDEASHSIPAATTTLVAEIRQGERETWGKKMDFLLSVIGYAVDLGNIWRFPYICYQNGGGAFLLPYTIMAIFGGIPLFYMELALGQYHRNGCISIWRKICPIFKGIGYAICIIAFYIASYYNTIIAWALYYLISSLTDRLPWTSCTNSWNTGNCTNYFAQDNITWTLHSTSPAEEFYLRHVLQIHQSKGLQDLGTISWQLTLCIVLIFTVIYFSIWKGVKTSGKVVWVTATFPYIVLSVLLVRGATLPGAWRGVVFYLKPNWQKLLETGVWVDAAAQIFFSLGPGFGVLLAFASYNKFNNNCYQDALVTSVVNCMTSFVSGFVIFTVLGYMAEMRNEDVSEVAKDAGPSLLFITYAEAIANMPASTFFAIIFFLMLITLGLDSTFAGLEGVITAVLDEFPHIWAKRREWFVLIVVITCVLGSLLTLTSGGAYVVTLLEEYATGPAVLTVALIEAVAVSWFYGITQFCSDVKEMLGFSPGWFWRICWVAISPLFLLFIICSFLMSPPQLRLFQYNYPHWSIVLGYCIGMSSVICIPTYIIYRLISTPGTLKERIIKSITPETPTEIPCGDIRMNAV
T2 sequence (P31652 whole entry): as above

CN(C)Cc1cc(O)ccc1Sc1ccc(F)cc1N [III-4-19]
Ki [1]: 220 pM

[2H]C([2H])([2H])N(Cc1cc(OCCCF)ccc1Sc1ccccc1N)C([2H])([2H])[2H] (single isomer, unassigned) [III-2]
Ki [1]: 32 ± 13 pM

NCc1cc(OCCCF)ccc1Sc1ccccc1N [III-5-5]
Ki [1]: 39300 ± 11900 pM

CN(C)Cc1cc(OCCCF)ccc1Sc1ccccc1N [III-1 (FPBM), reference compound]
Ki [1]: 52 ± 7 pM

[2H]C([2H])([2H])N(Cc1cc(O)ccc1Sc1ccccc1N)C([2H])([2H])[2H] [III-2-4]
Ki [1]: 2020 ± 540 pM

[2H]C([2H])(F)C([2H])([2H])C([2H])([2H])Oc1ccc(Sc2ccc(I)cc2N)c(CN(C)C)c1 [III-4-28]
Ki [1]: 8 pM

[2H]C([2H])(F)C([2H])([2H])C([2H])([2H])Oc1ccc(Sc2ccc(Cl)cc2N)c(CN(C)C)c1 [III-4-25]
Ki [1]: 9 pM

CN(C)Cc1cc(O)ccc1Sc1ccccc1N [III-1-1]
Ki [1]: 1210 ± 150 pM

CNCc1cc(OCCCF)ccc1Sc1ccccc1N [III-6-5]
Ki [1]: 5260 ± 660 pM

[2H]C([2H])([2H])NCc1cc(OCCCF)ccc1Sc1ccccc1N [III-6-8]
Ki [1]: 3050 ± 810 pM

CN(C)Cc1cc(OCCCF)ccc1Sc1ccc(F)cc1N
Ki [1]: 22 ± 16 pM

[2H]C([2H])([2H])Nc1ccc(/C=C/c2ccc(OCCOCCOCC[18F])nc2)cc1 [^18F-AV-45-D3 (IIa1)]
brain uptake ([2]; mice, after i.v. injection): excellent brain uptake comparable to that observed to ^18F-AV-45 | Biodistribution Blood ([2]; 2 min): 2.16 ± 0.05 % Dose/g | Biodistribution Bone ([2]; 2 min): 1.74 ± 0.18 % Dose/g | Biodistribution Brain ([2]; 2 min): 6.26 ± 0.23 % Dose/g | Biodistribution Heart ([2]; 2 min): 5.08 ± 0.39 % Dose/g | Biodistribution Kidney ([2]; 2 min): 9.51 ± 0.80 % Dose/g | Biodistribution Liver ([2]; 2 min): 12.0 ± 0.70 % Dose/g | Biodistribution Lung ([2]; 2 min): 4.88 ± 0.16 % Dose/g | Biodistribution Muscle ([2]; 2 min): 3.21 ± 0.14 % Dose/g | Biodistribution Pancreas ([2]; 2 min): 4.94 ± 0.77 % Dose/g | Biodistribution Skin ([2]; 2 min): 1.24 ± 0.27 % Dose/g | Biodistribution Spleen ([2]; 2 min): 2.50 ± 0.12 % Dose/g | Biodistribution Blood ([2]; 30 min): 2.93 ± 0.27 % Dose/g | Biodistribution Bone ([2]; 30 min): 2.24 ± 0.44 % Dose/g | Biodistribution Brain ([2]; 30 min): 1.71 ± 0.37 % Dose/g | Biodistribution Heart ([2]; 30 min): 2.40 ± 0.39 % Dose/g | Biodistribution Kidney ([2]; 30 min): 6.41 ± 1.86 % Dose/g | Biodistribution Liver ([2]; 30 min): 12.0 ± 0.71 % Dose/g | Biodistribution Lung ([2]; 30 min): 2.90 ± 0.47 % Dose/g | Biodistribution Muscle ([2]; 30 min): 1.79 ± 0.06 % Dose/g | Biodistribution Pancreas ([2]; 30 min): 2.05 ± 0.29 % Dose/g | Biodistribution Skin ([2]; 30 min): 2.07 ± 0.14 % Dose/g | Biodistribution Spleen ([2]; 30 min): 1.52 ± 0.21 % Dose/g | Biodistribution Blood ([2]; 60 min): 2.08 ± 0.07 % Dose/g | Biodistribution Bone ([2]; 60 min): 2.76 ± 0.37 % Dose/g | Biodistribution Brain ([2]; 60 min): 1.53 ± 0.20 % Dose/g | Biodistribution Heart ([2]; 60 min): 1.72 ± 0.19 % Dose/g | Biodistribution Kidney ([2]; 60 min): 3.74 ± 0.47 % Dose/g | Biodistribution Liver ([2]; 60 min): 8.15 ± 0.75 % Dose/g | Biodistribution Lung ([2]; 60 min): 1.97 ± 0.25 % Dose/g | Biodistribution Muscle ([2]; 60 min): 1.20 ± 0.04 % Dose/g | Biodistribution Pancreas ([2]; 60 min): 1.43 ± 0.20 % Dose/g | Biodistribution Skin ([2]; 60 min): 1.34 ± 0.07 % Dose/g | Biodistribution Spleen ([2]; 60 min): 1.22 ± 0.12 % Dose/g | Biodistribution Blood ([2]; 120 min): 1.36 ± 0.12 % Dose/g | Biodistribution Bone ([2]; 120 min): 4.41 ± 0.77 % Dose/g | Biodistribution Brain ([2]; 120 min): 1.26 ± 0.04 % Dose/g | Biodistribution Heart ([2]; 120 min): 1.18 ± 0.03 % Dose/g | Biodistribution Kidney ([2]; 120 min): 2.09 ± 0.02 % Dose/g | Biodistribution Liver ([2]; 120 min): 5.47 ± 0.29 % Dose/g | Biodistribution Lung ([2]; 120 min): 1.31 ± 0.03 % Dose/g | Biodistribution Muscle ([2]; 120 min): 0.75 ± 0.07 % Dose/g | Biodistribution Pancreas ([2]; 120 min): 0.87 ± 0.15 % Dose/g | Biodistribution Skin ([2]; 120 min): 0.91 ± 0.13 % Dose/g | Biodistribution Spleen ([2]; 120 min): 0.83 ± 0.07 % Dose/g

CN(C)Cc1ccccc1Sc1ccc(I)cc1CO [[^125I]IDAM, reference compound]
Kd ([1]; value used in Cheng-Prusoff equation): 200 pM

[2H]C([2H])(F)C([2H])([2H])C([2H])([2H])Oc1ccc(Sc2ccccc2N)c(CN(C)C)c1 (single isomer, unassigned) [III-4-2]
Ki [1]: 140 ± 60 pM

[2H]C([2H])([2H])N(Cc1cc(OC([2H])([2H])C([2H])([2H])C([2H])([2H])[18F])ccc1Sc1ccccc1N)C([2H])([2H])[2H] [^18F-III-3 (^18F-FPBM-D12)]
Biodistribution Blood ([3]; 2 min): 0.25 ± 0.04 % Dose/g | Biodistribution Bone ([3]; 2 min): 0.35 ± 0.06 % Dose/g | Biodistribution Brain ([3]; 2 min): 1.09 ± 0.06 % Dose/g | Biodistribution Heart ([3]; 2 min): 1.19 ± 0.18 % Dose/g | Biodistribution Kidney ([3]; 2 min): 3.02 ± 0.16 % Dose/g | Biodistribution Liver ([3]; 2 min): 0.74 ± 0.16 % Dose/g | Biodistribution Lung ([3]; 2 min): 9.56 ± 2.29 % Dose/g | Biodistribution Muscle ([3]; 2 min): 0.14 ± 0.02 % Dose/g | Biodistribution Pancreas ([3]; 2 min): 1.13 ± 0.02 % Dose/g | Biodistribution Skin ([3]; 2 min): 0.22 ± 0.04 % Dose/g | Biodistribution Spleen ([3]; 2 min): 1.48 ± 0.31 % Dose/g | Biodistribution Blood ([3]; 30 min): 0.16 ± 0.03 % Dose/g | Biodistribution Bone ([3]; 30 min): 0.19 ± 0.01 % Dose/g | Biodistribution Brain ([3]; 30 min): 0.81 ± 0.04 % Dose/g | Biodistribution Heart ([3]; 30 min): 0.18 ± 0.02 % Dose/g | Biodistribution Kidney ([3]; 30 min): 1.79 ± 0.38 % Dose/g | Biodistribution Liver ([3]; 30 min): 0.30 ± 0.05 % Dose/g | Biodistribution Lung ([3]; 30 min): 1.86 ± 0.42 % Dose/g | Biodistribution Muscle ([3]; 30 min): 0.09 ± 0.02 % Dose/g | Biodistribution Pancreas ([3]; 30 min): 0.27 ± 0.06 % Dose/g | Biodistribution Skin ([3]; 30 min): 0.19 ± 0.03 % Dose/g | Biodistribution Spleen ([3]; 30 min): 0.88 ± 0.05 % Dose/g | Biodistribution Blood ([3]; 60 min): 0.10 ± 0.02 % Dose/g | Biodistribution Bone ([3]; 60 min): 0.16 ± 0.02 % Dose/g | Biodistribution Brain ([3]; 60 min): 0.54 ± 0.05 % Dose/g | Biodistribution Heart ([3]; 60 min): 0.09 ± 0.01 % Dose/g | Biodistribution Kidney ([3]; 60 min): 1.29 ± 0.29 % Dose/g | Biodistribution Liver ([3]; 60 min): 0.22 ± 0.02 % Dose/g | Biodistribution Lung ([3]; 60 min): 0.85 ± 0.11 % Dose/g | Biodistribution Muscle ([3]; 60 min): 0.07 ± 0.01 % Dose/g | Biodistribution Pancreas ([3]; 60 min): 0.19 ± 0.02 % Dose/g | Biodistribution Skin ([3]; 60 min): 0.16 ± 0.01 % Dose/g | Biodistribution Spleen ([3]; 60 min): 0.46 ± 0.10 % Dose/g | Biodistribution Blood ([3]; 120 min): 0.06 ± 0.00 % Dose/g | Biodistribution Bone ([3]; 120 min): 0.13 ± 0.01 % Dose/g | Biodistribution Brain ([3]; 120 min): 0.31 ± 0.03 % Dose/g | Biodistribution Heart ([3]; 120 min): 0.05 ± 0.01 % Dose/g | Biodistribution Kidney ([3]; 120 min): 0.83 ± 0.39 % Dose/g | Biodistribution Liver ([3]; 120 min): 0.16 ± 0.01 % Dose/g | Biodistribution Lung ([3]; 120 min): 0.45 ± 0.10 % Dose/g | Biodistribution Muscle ([3]; 120 min): 0.03 ± 0.01 % Dose/g | Biodistribution Pancreas ([3]; 120 min): 0.13 ± 0.07 % Dose/g | Biodistribution Skin ([3]; 120 min): 0.10 ± 0.02 % Dose/g | Biodistribution Spleen ([3]; 120 min): 0.21 ± 0.04 % Dose/g | blood-brain-barrier penetration ([3]; rats, after i.v. injection): penetrated the blood-brain-barrier | Region to Cerebellum Ratio: Cerebellum ([4]; 2 min): 1.00 ± 0.00 | Region to Cerebellum Ratio: Cortex ([4]; 2 min): 1.44 ± 0.27 | Region to Cerebellum Ratio: Hippocampus ([4]; 2 min): 0.97 ± 0.13 | Region to Cerebellum Ratio: Hypothalamus ([4]; 2 min): 1.17 ± 0.21 | Region to Cerebellum Ratio: Remainder ([4]; 2 min): 1.21 ± 0.13 | Region to Cerebellum Ratio: Striatum ([4]; 2 min): 1.15 ± 0.18 | Region to Cerebellum Ratio: Cerebellum ([4]; 30 min): 1.00 ± 0.00 | Region to Cerebellum Ratio: Cortex ([4]; 30 min): 1.81 ± 0.30 | Region to Cerebellum Ratio: Hippocampus ([4]; 30 min): 2.04 ± 0.27 | Region to Cerebellum Ratio: Hypothalamus ([4]; 30 min): 2.99 ± 0.46 | Region to Cerebellum Ratio: Remainder ([4]; 30 min): 2.42 ± 0.13 | Region to Cerebellum Ratio: Striatum ([4]; 30 min): 2.43 ± 0.38 | Region to Cerebellum Ratio: Cerebellum ([4]; 60 min): 1.00 ± 0.00 | Region to Cerebellum Ratio: Cortex ([4]; 60 min): 2.68 ± 0.35 | Region to Cerebellum Ratio: Hippocampus ([4]; 60 min): 3.45 ± 0.42 | Region to Cerebellum Ratio: Hypothalamus ([4]; 60 min): 5.32 ± 0.45 | Region to Cerebellum Ratio: Remainder ([4]; 60 min): 3.77 ± 0.43 | Region to Cerebellum Ratio: Striatum ([4]; 60 min): 3.96 ± 0.62 | Region to Cerebellum Ratio: Cerebellum ([4]; 120 min): 1.00 ± 0.00 | Region to Cerebellum Ratio: Cortex ([4]; 120 min): 2.67 ± 0.50 | Region to Cerebellum Ratio: Hippocampus ([4]; 120 min): 3.85 ± 0.28 | Region to Cerebellum Ratio: Hypothalamus ([4]; 120 min): 7.55 ± 0.82 | Region to Cerebellum Ratio: Remainder ([4]; 120 min): 4.74 ± 0.71 | Region to Cerebellum Ratio: Striatum ([4]; 120 min): 4.69 ± 1.26
